Reference: ChEMBL document CHEMBL1124129, “Binding of steroids to the progestin and glucocorticoid receptors analyzed by correspondence analysis” (J Med Chem, 1988)

Target: T1, Glucocorticoid receptor (Rattus norvegicus) (UniProt P06536)
T1 sequence (whole entry): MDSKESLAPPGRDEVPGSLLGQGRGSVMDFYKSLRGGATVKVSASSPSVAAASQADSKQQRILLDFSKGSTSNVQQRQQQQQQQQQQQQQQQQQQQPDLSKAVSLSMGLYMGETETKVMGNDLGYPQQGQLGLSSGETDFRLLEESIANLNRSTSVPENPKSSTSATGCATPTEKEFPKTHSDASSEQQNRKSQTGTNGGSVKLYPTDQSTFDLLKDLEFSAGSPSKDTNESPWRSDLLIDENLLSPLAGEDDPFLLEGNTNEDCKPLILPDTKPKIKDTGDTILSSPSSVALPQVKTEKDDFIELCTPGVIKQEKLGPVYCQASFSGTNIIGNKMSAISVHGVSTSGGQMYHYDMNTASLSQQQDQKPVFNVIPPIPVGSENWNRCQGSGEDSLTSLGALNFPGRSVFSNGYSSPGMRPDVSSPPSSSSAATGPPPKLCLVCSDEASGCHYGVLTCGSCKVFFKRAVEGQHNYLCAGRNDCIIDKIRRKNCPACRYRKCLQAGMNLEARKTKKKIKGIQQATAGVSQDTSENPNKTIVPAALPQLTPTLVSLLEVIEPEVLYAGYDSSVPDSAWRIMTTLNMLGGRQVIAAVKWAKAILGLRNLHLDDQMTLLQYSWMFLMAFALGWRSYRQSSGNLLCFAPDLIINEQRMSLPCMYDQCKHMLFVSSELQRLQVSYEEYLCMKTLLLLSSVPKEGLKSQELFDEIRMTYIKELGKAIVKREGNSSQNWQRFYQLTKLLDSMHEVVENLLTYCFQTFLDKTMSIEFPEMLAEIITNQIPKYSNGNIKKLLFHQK
Assay: Relative binding affinity to glucocorticoid receptor on cytosol fromt hymus at 4 hr

- RBA: 270
Compound: CC#C[C@]1(O)CCC2C3CCC4=CC(=O)CCC4=C3C(c3cccs3)CC21C (stereo partly specified)
